Consider 4 compounds from paper PMC3898838, “Design, Synthesis, and Biological Evaluation of an Allosteric Inhibitor of HSET that Targets Cancer Cells with Supernumerary Centrosomes” (Chemistry & Biology, 2013).

Assay [1] concerns the target T1, full-length, N-terminal, 6His-tagged human HSET (Homo sapiens, UniProt Q9BW19).
T1 construct: The protocol was optimized for use with full-length, N-terminal, 6His-tagged HSET and KSP; made in house; host or cells: Sf9 insect cells (baculovirus, pFastBac1)
T1 sequence (Q9BW19 1-673): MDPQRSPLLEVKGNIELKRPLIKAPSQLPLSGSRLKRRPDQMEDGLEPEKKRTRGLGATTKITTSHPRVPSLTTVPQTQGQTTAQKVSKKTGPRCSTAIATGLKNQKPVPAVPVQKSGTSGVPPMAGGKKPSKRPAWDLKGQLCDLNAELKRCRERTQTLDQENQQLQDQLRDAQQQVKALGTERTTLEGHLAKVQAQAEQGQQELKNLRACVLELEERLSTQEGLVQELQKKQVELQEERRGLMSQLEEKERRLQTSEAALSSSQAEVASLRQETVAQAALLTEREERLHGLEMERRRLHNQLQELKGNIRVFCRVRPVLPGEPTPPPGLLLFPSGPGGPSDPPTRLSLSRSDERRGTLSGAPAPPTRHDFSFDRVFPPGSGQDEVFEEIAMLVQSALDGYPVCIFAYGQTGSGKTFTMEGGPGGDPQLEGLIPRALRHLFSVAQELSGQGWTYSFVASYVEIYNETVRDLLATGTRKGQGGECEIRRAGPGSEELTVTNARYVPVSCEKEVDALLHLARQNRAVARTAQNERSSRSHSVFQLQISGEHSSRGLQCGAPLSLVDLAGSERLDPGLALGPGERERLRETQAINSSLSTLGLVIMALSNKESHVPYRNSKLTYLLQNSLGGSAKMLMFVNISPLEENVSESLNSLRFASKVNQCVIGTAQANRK
In words: In vitro enzymatic ATPase assay (ADP-Glo), MT-stimulated activity. In kind it is biochemical. To be noted: for reduction of HSET ATPase function: first-pass enzymatic assay, at 100 μM, n = 3. The source says:
(§1) The similarity decreases to 56% in the loop 5 binding cleft alone (residues 422–432; Figure 1A). Given the high degree of similarity between the proteins, and the potential for selective binding in the loop 5 cleft, the chemogenomics principle that similar proteins bind similar ligands was applied to HSET and KSP, and an in silico model for HSET binding was developed based on nearly 500 existing inhibitors of KSP in the ChEMBL database (see Experimental Procedures for details; [Klabunde, 2007]). Using the model parameters, we selected 200 compounds (in silico) from 20 million possibilities and further triaged them into 50 ligands that scored highest in the bioactivity model. We acquired and tested these ligands for in vitro activity using an ADP-Glo enzymatic assay (see Experimental Procedures for details; Figure 1B).
(§2) The protocol was optimized for use with full-length, N-terminal, 6His-tagged HSET and KSP, and measured the MT-stimulated activity of the proteins. Inhibition of the […] of HSET/KSP was observed spectrophotometrically by coupling the hydrolysis of ATP to oxidation of NADH via pyruvate kinase/lactate dehydrogenase reactions. The assay was initiated by […] an assay mixture containing the following components (final concentration): 6 nM protein, 0.07 mg/ml MTs (University Biologicals), […], 2 mM ATP, 2.7 mM MgCI, 1 mM phospho(enol)-pyruvate, 0.2 mM NADH, 50 μg/ml lactate dehydrogenase, 100 μg/ml pyruvate kinase, and various concentrations of inhibitor all in 50 mM Na PIPES (pH 6.8) at 37°C. The ADP-Glo detection assay (Promega) was performed as described in the manufacturer’s instructions. All compound additions were performed using a multidrop BioMek Nxp (Beckman Coulter). Plates were read using a Pherastar microplate reader (BMG Labtech).

The test system of assay [2] is HeLa cells. Nature of the assay: Immunofluorescence after time-lapse imaging, monopolar/bipolar spindles. To be noted: 200 μM CW069, 100 μM monastrol, 40 mitotic cells. Format: cell-based, human. The source says:
Immediately after time-lapse imaging, cells were fixed and antibodies against α-tubulin, CDK5RAP2, and DAPI were employed to visualize MTs, centrosomes, and DNA, respectively. […] Control HeLa cells formed mainly bipolar spindles (92%), with two centrosomes positioned at the spindle poles on either side of the metaphase plate (Figure 6C; Table 1). Similar numbers of bipolar spindles were formed in CW069-treated cells (95%; Figure 6C; Table 1). Monastrol-treated cells almost exclusively formed monopolar spindles (97%) with one pole surrounded by DNA ([Luo et al., 2004]; Figure 6C; Table 1). Normal bipolar spindle formation was indeed restored for many cells (45%) when the HSET inhibitor CW069 was administered along with the KSP inhibitor monastrol (Figure 6C; Table 1).
Cells were plated at a seeding density of 1.2 × 10^4 cells per well in Ibidi eight-well chamber slides, incubated for 24 hr, and then treated with compound for 3 hr. Prewarmed 4% paraformaldehyde in PBS was then added to each well to fix the cells before washing with PBS. Permeabilization and blocking was performed by incubating the slides with 1% BSA, 0.3% Triton X-100, 5% goat serum in PBS (PBS/B/0.3%T+5%GS) for 1 hr while shaking them at room temperature (RT). The slides were incubated with primary antibody solutions (mouse monoclonal anti-α-Tubulin [catalog number T9026; Sigma-Aldrich] and rabbit anti-CDK5RAP2 [catalog number A300-554A; Bethyl Laboratories]) at 4°C for 16 hr. The slides were washed four times with PBS/B/0.3%T+5%GS and then incubated with secondary antibody solutions (anti-rabbit IgG Alexa Fluor 488 [catalog number A21206] and anti-mouse IgG Alexa Fluor 647 [catalog number A20990]; Invitrogen) and DAPI (catalog number D3571; Invitrogen) in deionized water (300 nM) in the dark at RT for 1 hr. After four washes with PBS/B/0.3%T+5%GS, the solution was replaced with PBS and the slides were stored at 4°C until imaging was performed. Images were gathered with the use of an ICys Research Imaging Cytometer (CompuCyte) or a tandem confocal microscope (Leica).

The test system of assay [3] is HeLa cells. Nature of the assay: Time-lapse video microscopy, mitotic duration, arrest and exit. To be noted: 200 μM CW069, 100 μM monastrol. In kind it is cell-based, human. The method, then: HSET is known to antagonize the activity of the related kinesin, KSP, during spindle formation ([Mountain et al., 1999]). Therefore, we used time-lapse video microscopy to investigate whether CW069-treated cells transit mitosis with normal kinetics, and whether the characteristic mitotic arrest induced by inhibition of KSP ([Mayer et al., 1999]) could be suppressed by cotreatment with CW069. To this end, HeLa cells were treated with either DMSO control (0.2%), 200 μM CW069, 100 μM monastrol, or CW069+monastrol for 60 min before being imaged every 5 min for a further 360 min. Mitotic duration (MD) was defined as the period of time between when the cells began to round up and the onset of anaphase. No statistical difference was recorded between control cells and cells treated with 200 μM CW069 (MD 55 ± 7 and 53 ± 6 min, respectively, Figures 6A, 6B, and S7). […] This effect was reversed to a large extent by cotreatment of CW069 with monastrol. […] This is consistent with observations previously reported for KSP-depleted cells ([Mountain et al., 1999]). […] Cells were synchronized in G2-M by incubation at 37°C and 5% CO2 for 24 hr with 9 μM of the CDK1 inhibitor RO-3306 (Merck). Cells were released by removal of the RO-3306 and four washings of 10 min each, at 37°C, with prewarmed culture media + 10% FBS. N1E-115 cells were transfected with siRNA (Supplemental Experimental Procedures) and imaged from 6 hr after transfection. Some RO-3306-synchronized cells were released with 200 μM CW069, 100 μM monastrol, or 0.2% DMSO, and imaging started immediately or 1 hr after treatment. Imaging was carried out for 24 hr, or for 4 hr in the case of the CW069/monastrol cotreatment. Imaging was conducted every 5 min in a humidified chamber with 37°C and 5% CO2, using a Nikon Eclipse TE2000-E microscope, and analyzed with NIS-Elements software (Nikon, Tokyo, Japan). The morphology of cells in mitosis and the mitotic fate (bipolar division, multipolar division, or cell death) were analyzed.

For assay [4], the target named is T2, full-length, N-terminal, 6His-tagged KSP (Homo sapiens, UniProt P52732).
T2 construct: IC50 values for CW069 and 3 against full-length, N-terminal, 6His-tagged HSET and KSP; made in house
T2 sequence (P52732 1-1056): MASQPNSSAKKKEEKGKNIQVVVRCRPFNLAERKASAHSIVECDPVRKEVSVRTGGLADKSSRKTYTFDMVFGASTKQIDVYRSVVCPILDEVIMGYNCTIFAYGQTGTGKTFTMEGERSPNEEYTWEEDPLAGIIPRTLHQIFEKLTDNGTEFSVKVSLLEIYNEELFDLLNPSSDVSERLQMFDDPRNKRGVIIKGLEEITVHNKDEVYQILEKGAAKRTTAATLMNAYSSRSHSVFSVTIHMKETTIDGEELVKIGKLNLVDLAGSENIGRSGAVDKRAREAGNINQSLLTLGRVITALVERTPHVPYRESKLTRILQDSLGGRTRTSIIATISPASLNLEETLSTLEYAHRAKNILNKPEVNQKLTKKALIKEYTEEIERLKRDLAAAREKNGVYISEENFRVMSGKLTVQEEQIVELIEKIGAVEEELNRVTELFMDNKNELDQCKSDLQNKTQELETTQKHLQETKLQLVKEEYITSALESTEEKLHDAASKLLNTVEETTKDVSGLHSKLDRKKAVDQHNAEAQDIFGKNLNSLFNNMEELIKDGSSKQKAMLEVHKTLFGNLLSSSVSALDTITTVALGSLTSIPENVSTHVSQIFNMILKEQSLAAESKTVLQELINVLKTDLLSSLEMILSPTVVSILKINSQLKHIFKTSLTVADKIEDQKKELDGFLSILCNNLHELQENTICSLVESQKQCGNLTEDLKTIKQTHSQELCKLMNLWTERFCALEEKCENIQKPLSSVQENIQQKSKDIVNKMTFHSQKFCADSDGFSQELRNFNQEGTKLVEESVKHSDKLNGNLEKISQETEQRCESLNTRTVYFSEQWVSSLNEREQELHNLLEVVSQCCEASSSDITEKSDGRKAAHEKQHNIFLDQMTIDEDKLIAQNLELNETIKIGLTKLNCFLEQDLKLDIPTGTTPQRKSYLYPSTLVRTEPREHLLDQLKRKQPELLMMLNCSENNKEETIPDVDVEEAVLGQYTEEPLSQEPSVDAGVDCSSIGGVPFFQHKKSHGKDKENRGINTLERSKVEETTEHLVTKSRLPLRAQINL
In words: In vitro enzymatic ATPase assay (ADP-Glo), MT-stimulated activity. In kind it is biochemical. To be noted: concentrations up to 250 μM, mean ± SD.
Text: as §1, §2

The mark [5] stands for this setting: >200 cells that entered mitosis >60 min after treatment.

For the compound `O=C(c1ccc(N2CCCc3ccccc32)s1)n1ccnc1` [compound 1], the “reduction of HSET ATPase function” value in assay [1] is recorded as more than 60%.

Take `CCOC(=O)C1=C(C)NC(=S)NC1c1cccc(O)c1` (stereo not shown) [monastrol, reference compound]: in the assay with HeLa cells [2], the “Bipolar Spindle (%)” value is reported as 3% and the “Monopolar Spindle (%)” value was 97%. In the assay on HeLa cells [3] (setting [5]), the “Mitotic Arrest (%)” value amounted to 93% and the “Mitotic Exit (%)” value worked out at 7%. In addition, in the assay on HeLa cells [3] (rounding up to anaphase onset, cells transiting mitosis), the “Mitotic duration (MD)” value is given as 179 ± 68 min.

As for `O=C(O)c1cc(Cl)c(Cl)cc1C(=O)N(Cc1ccccc1)Cc1ccccc1` [compound 3], the IC50 in assay [4] was 29 ± 2 µM; in assay [1] (concentrations up to 250 μM, mean ± SD), 30 ± 4 µM. Besides, the “selectivity for HSET over KSP” value in assay [1] (from IC50 values, HSET vs KSP) was “does not possess selectivity for HSET”.

Consider `O=C(O)c1cc(I)ccc1NC1C(=O)OC(c2ccccc2)C1c1ccccc1` (stereo not shown) [compound 2], for which the “reduction of HSET ATPase function” value in assay [1] was more than 60%.

The IC50 is the concentration that gives 50% inhibition. A lower IC50 goes with greater potency.
